Ends that are not written are not given here.
How the values were obtained:
Assay type in all cases: cell-based, human
[1] = system: SUM149PT cells; test: cells
Source text: (§1) The EN1-iPeps and iPep controls were first tested in SUM149PT cells carrying high EN1 expression. Cells were first treated with a full-length 29-mer peptide (iPep624) comprising the N-terminal, less conserved amino acid sequences, the hexamotif, and the C-terminal tail. As a control, the inventors generated the iPep624ΔHEX in which the hexamotif was mutated from the wild type (wt) WPAWVY (SEQ ID NO: 13) to the GAAGAG (SEQ ID NO: 15) sequence. These mutations were expected to dramatically abolish the activity of the peptide. Both peptides were included in the culture medium of the basal cancer cells in increasing (0-100 μM) concentrations and incubated for 8 hours at 37° C. Treated cells were first analyzed using the Cell Titer Glo assay, which monitors metabolic viability. […] This calculated value of IC50 is in the range of concentrations observed with other peptides delivered with CPPs.
All peptides were synthetized at the UNC High-Throughput Peptide Synthesis and Array Facility at UNC. Taxol, Rotenone and Halofuginone (Sigma-Aldrich, St Louis, Mo.) were dissolved in DMSO. A total of […] or 1×10^3 breast cells for peptide and drug treatment respectively, were seeded in 96-well plates. Cells were exposed for 8 hours to the peptide and 48 to 72 hours for drug treatment. The cell viability after peptide/drug treatment was assayed with the Cell Titer Glo (CTG) assay (Promega, Madison, Wis., USA).

[2] = system: caspase 3 activity in SUM149PT cells; test: Caspase-3 colorimetric assay in SUM149PT cells; conditions: 8 hours, compared with non-treated or iPep624ΔHEX-treated cells
Source text: as §1
Detection of apoptosis was performed with a Caspase-3 colorimetric assay (Sigma-Aldrich, St Louis, Mo.) according to the manufacturer's instructions.

[3] = system: SUM149PT cells; test: Hoechst staining of apoptotic nuclei in SUM149PT cells; conditions: 8 hours, compared with non-treated or iPep624ΔHEX-treated cells
Source text: FIG. 3 Design of an EN1-specific interference peptide (EN1-iPep). (a) Molecular model of HOXA9 and PBX1 tertiary complex formation with the DNA (PDB: 1PUF). HOXA9 (hexapeptide “donor”) is shown in green; PBX (“partner”) in blue. The N-terminal peptide of HOXA9 (magenta) is essential to make contact with the DNA minor groove, as well as to stabilize the binding of HOXA9 with PBX1. The conserved tryptophan residue (W, arrow) is shown within the hexapeptide and it is responsible for anchoring the loop in PBX1. HD=Homeodomain. (b) A multiple alignment of the EN1-iPeps across species, with the consensus sequence of the iPep indicated below. […] Cells were treated for 8 hours and cell viability assessed by Cell Titer Glo assay (CTG). […] (e) Caspase 3 activity in SUM149PT cells measured after eight hours of iPep624 (SEQ ID NO: 5) or iPep624ΔHEX […]) treatment. […] Statistical significance was analyzed using the Student t-Test (*** p<0.001). […] Histogram represents the quantification of Hoechst positive cells per field of view at 40× magnification. […] Cell viability was assessed by Cell Titer Glo (CTG) assay and percentage of survival (%) was normalized to the control treated cells. […]
The EN1-iPeps and iPep controls were first tested in SUM149PT cells carrying high EN1 expression. […] Treated cells were first analyzed using the Cell Titer Glo assay, which monitors metabolic viability. […]

IC50 ([1]; 8 h): 17.5 µM
Sequence: KKKRKVTDSQQPLVWPAWVYCTRYSDRPS [iPep624]
cell viability ([1]; SUM149PT, 0-100 μM peptide, 8 hours): decreased cell viability
sensitization to halofuginone ([1]; SUM149PT, co-treatment with 500 nM iPep): sensitized even more the basal-like breast cancer cells to halofuginone
breast cancer cell death ([1]; SUM149PT, single agent): induced very potent breast cancer cell death
caspase 3 activity [2]: significantly higher
number of apoptotic nuclei [3]: significantly higher

Source: patent US10201610B2, “Interference peptides and use thereof” (The University of Western Australia, priority 2014, dated 2019)
